Patent US20170290774A1, “NEUROKININ-1 RECEPTOR ANTAGONIST COMPOSITION FOR TREATMENT OF DISEASES AND CONDITIONS OF THE RESPIRATORY TRACT” (PLUS VITECH, S.L., priority 2014, published 2017)

Columns and labels:
[1] = test system: TGFα; experiment: Immunohistochemistry of TGFα in respiratory tract tissue of sodium hypochlorite aerosol-treated rabbits; format: in vivo, New Zealand albino rabbits
From the text: It is known that the factors TGF-α, TGF-β 1, TGF-β 2, TGF-β 3, SPARC, MMP-3; MMP-7, MMP-9, MMP-11, MMP-13 and MMP-14, TGF-β, NF-kB, EGF, MMP-9, VEGF and TNF-α which are produced by lung cells (pneumocytes, fibroblasts and vascular endothelial cells) and inflammatory cells (macrophages, lymphocytes and polymorphonuclear leukocytes) are involved in the pathophysiology and development of said respiratory tract diseases. […] Herein, 27 New Zealand albino rabbits (New Zealand White Rabbit) with an initial average weight about 3 kg were used in this example. All subjects were administered an aerosol of a solution consisting of a mixture of water and sodium hypochlorite (35 g sodium hypochlorite per liter of water) at a rate of 5 mL of said solution by inhalation three times a day for 7 days (days 1 to 7 of experimentation). Subsequently, from days 3 to 7, a group of 3 rabbits (Group 1) was administered an oral dose of 10 mg/kg body weight per day, another group of 3 rabbits (Group 2) was administered an oral dose of 40 mg/kg body weight per day, a third group (Group 3) was administered an oral dose of 80 mg/kg body weight per day and a fourth group (Group 4) was administered an oral dose of 100 mg/kg body weight per day. […] This mixture was administered as an aerosol by inhalation, also from days 3 to 7, to a group of 3 rabbits (group 5) at a dose of 0.05 mg/kg body weight per day, to another group of three rabbits (Group 6) at a dose of 0.1 mg/kg body weight per day, to another group of three rabbits (Group 7) at a dose of 0.2 mg/kg body weight per day and to another group of three rabbits (Group 8) at a dose of 0.4 mg/kg body weight per day. A placebo consisting only of olive oil was administered from days 3 to 7 to a control group of 3 rabbits (placebo group). In parallel, 3 rabbits were kept under identical conditions but were not administered any treatment nor the aforementioned sodium hypochlorite solution (control group). […] On day 7 of the experiment all animals were euthanized and necropsied. […] Samples were taken at the peripheral level of the lung parenchyma, just below the pleural surface. Tissue samples were also taken from the nasal cavity, pharynx, larynx and bronchi. Immunohistochemistry studies were performed for all samples to evaluate the levels of the markers TGF-α, TGF-β 1, TGF-β 2, TGF-β 3 SPARC, MMP-3; MMP-7, MMP-9, MMP-11, MMP-14, TGF-β, TNF-α and VEGF. In said immunohistochemistry studies, a sample of each sample was dehydrated by treatment with increasing concentrations of ethanol and finally xylene. Subsequently said dried samples were embedded in paraffin, thus creating a block. Said paraffin blocks were cut on a microtome to a thickness of 5 μm, and the resulting sections (slices) were placed on slides suitable for conducting immunohistochemistry techniques. Subsequently, the sections were deparaffinised by immersion in xylene and then rehydrated through immersion in a series of solutions containing decreasing concentrations of ethanol and, finally, water. […] The samples were then allowed to cool to room temperature over 10 minutes. Endogenous peroxidase activity was blocked by treatment with 3% hydrogen peroxide over 30 min at room temperature. […] In order to verify the expression of NK1 receptors, the cell samples were incubated in the presence of anti-NK1 antibodies ([…], Sigma-Aldrich) diluted 1:1000 at 4° C. overnight. After this time they were washed in 0.05M Tris buffer at room temperature. Subsequently, Envision System-HRP (Dako) reagents were added for 30 min at room temperature. Once this time had expired, the samples were again washed with 0.05 M Tris buffer, and immunoreactivity was visualized by light microscopy with a chromogenic solution with 3,3'-diaminobenzidine (DAB+; Dako, USA). In order to differentiate the cell nuclei, these were lightly stained with haematoxylin. Samples that were not incubated with the primary antibody, but wherein this was replaced by a non-immune serum were used as negative controls. […]

[2] = target: T1, CYP3A4 (Homo sapiens, UniProt P08684); settings: human hepatic microsomes; cited from earlier work
T1 construct: In vitro studies in which human hepatic microsomes were used; from tissue; host or cells: human hepatic (liver) microsomes

[3] = Saturation concentration of NK1 receptor antagonists in olive oil; format: physicochemical; settings: 25° C.
Experimental: (§1) Each of said mixtures was continuously and gently stirred for 10 minutes at ambient temperature (25° C.) and then maintained at rest for 60 minutes. The saturation concentration was considered to be that which was immediately lower in the aforementioned series than a concentration where deposition was observed, but in which no deposition of the active ingredient was observed.

[4] = Saturation concentration in olive oil:ethanol (9:1); format: physicochemical; settings: 25° C.
Experimental: as §1, with “less” for “lower in the aforementioned series”

T1 sequence (P08684 whole entry): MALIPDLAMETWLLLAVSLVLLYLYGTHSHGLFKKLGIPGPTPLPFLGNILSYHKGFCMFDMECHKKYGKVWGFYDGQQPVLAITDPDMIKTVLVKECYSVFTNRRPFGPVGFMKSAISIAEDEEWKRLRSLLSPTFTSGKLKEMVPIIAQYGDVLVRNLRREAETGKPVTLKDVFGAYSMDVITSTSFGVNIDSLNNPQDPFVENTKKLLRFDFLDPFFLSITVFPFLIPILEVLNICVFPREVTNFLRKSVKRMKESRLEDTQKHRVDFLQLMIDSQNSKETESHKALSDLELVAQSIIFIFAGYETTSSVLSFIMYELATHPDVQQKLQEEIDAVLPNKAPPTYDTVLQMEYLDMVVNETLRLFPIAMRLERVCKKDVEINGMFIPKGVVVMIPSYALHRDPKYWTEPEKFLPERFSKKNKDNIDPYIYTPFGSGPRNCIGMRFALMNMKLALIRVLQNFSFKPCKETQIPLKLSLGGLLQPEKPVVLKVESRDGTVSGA

Saturation concentration [3]: 60 nM
Saturation concentration [4]: 80 nM
Structure (SMILES): C[C@@H](OC1OCCN(Cc2nc(=O)[nH][nH]2)C1c1ccc(F)cc1)c1cc(C(F)(F)F)cc(C(F)(F)F)c1 (stereo in doubt) [Aprepitant, 5-([(2R,3S)-2-((R)-1-[3,5-bis(trifluoromethyl)phenyl]ethoxy)-3-(4-fluorophenyl)morpholino]methyl)-1H-1,2,4-triazol-3(2H)-one]
Percent increase in TGFα with respect to the control group ([1]; bronchial tissue, Group 1, oral 10 mg/kg per day): 1,980.45%
Percent increase in TGFα with respect to the control group ([1]; bronchial tissue, Group 2, oral 40 mg/kg per day): 1,540.45%
Percent increase in TGFα with respect to the control group ([1]; bronchial tissue, Group 3, oral 80 mg/kg per day): 1,190.45%
Percent increase in TGFα with respect to the control group ([1]; bronchial tissue, Group 4, oral 100 mg/kg per day): 873.34%
% Med G5/C: percent increase in marker TGFα with respect to the control group ([1]; bronchial tissue, Group 5): 1,875.75%
% Med G6/C: percent increase in marker TGFα with respect to the control group ([1]; bronchial tissue, Group 6): 1,267.45%
% Med G7/C: percent increase in marker TGFα with respect to the control group ([1]; bronchial tissue, Group 7): 689.78%
% Med G8/C: percent increase in marker TGFα with respect to the control group ([1]; bronchial tissue, Group 8): 209.45%
Percent increase in TGFα with respect to the control group ([1]; laryngeal tissue, Group 1, oral 10 mg/kg per day): 1,875.56%
Percent increase in TGFα with respect to the control group ([1]; laryngeal tissue, Group 2, oral 40 mg/kg per day): 1,500.45%
Percent increase in TGFα with respect to the control group ([1]; laryngeal tissue, Group 3, oral 80 mg/kg per day): 1,320.32%
Percent increase in TGFα with respect to the control group ([1]; laryngeal tissue, Group 4, oral 100 mg/kg per day): 1,101.28%
Percent increase in TGFα with respect to the control group ([1]; laryngeal tissue, Group 5, inhalation 0.05 mg/kg per day): 1,820.45%
Percent increase in TGFα with respect to the control group ([1]; laryngeal tissue, Group 6, inhalation 0.1 mg/kg per day): 1,250.74%
Percent increase in TGFα with respect to the control group ([1]; laryngeal tissue, Group 7, inhalation 0.2 mg/kg per day): 783.78%
Percent increase in TGFα with respect to the control group ([1]; laryngeal tissue, Group 8, inhalation 0.4 mg/kg per day): 234.67%
Percent increase in TGFα with respect to the control group ([1]; lung tissue, Group 1, oral 10 mg/kg per day): 1,717.76%
Percent increase in TGFα with respect to the control group ([1]; lung tissue, Group 2, oral 40 mg/kg per day): 1,308.73%
Percent increase in TGFα with respect to the control group ([1]; lung tissue, Group 3, oral 80 mg/kg per day): 1,257.29%
Percent increase in TGFα with respect to the control group ([1]; lung tissue, Group 4, oral 100 mg/kg per day): 1,195.15%
Percent increase in TGFα with respect to the control group ([1]; lung tissue, Group 6, inhalation 0.1 mg/kg per day): 937.00%
Percent increase in TGFα with respect to the control group ([1]; lung tissue, Group 7, inhalation 0.2 mg/kg per day): 402.39%
Percent increase in TGFα with respect to the control group ([1]; lung tissue, Group 8, inhalation 0.4 mg/kg per day): 147.11%
Percent increase in TGFα with respect to the control group ([1]; nasal cavity tissue, Group 1, oral 10 mg/kg per day): 2,824.89%
Percent increase in TGFα with respect to the control group ([1]; nasal cavity tissue, Group 2, oral 40 mg/kg per day): 1,907.98%
Percent increase in TGFα with respect to the control group ([1]; nasal cavity tissue, Group 3, oral 80 mg/kg per day): 1,347.22%
Percent increase in TGFα with respect to the control group ([1]; nasal cavity tissue, Group 4, oral 100 mg/kg per day): 952.16%
Percent increase in TGFα with respect to the control group ([1]; nasal cavity tissue, Group 5, inhalation 0.05 mg/kg per day): 2,908.21%
Percent increase in TGFα with respect to the control group ([1]; nasal cavity tissue, Group 6, inhalation 0.1 mg/kg per day): 764.46%
Percent increase in TGFα with respect to the control group ([1]; nasal cavity tissue, Group 7, inhalation 0.2 mg/kg per day): 495.68%
Percent increase in TGFα with respect to the control group ([1]; nasal cavity tissue, Group 8, inhalation 0.4 mg/kg per day): 156.67%
Percent increase in TGFα with respect to the control group ([1]; pharyngeal tissue, Group 1, oral 10 mg/kg per day): 2,274.76%
Percent increase in TGFα with respect to the control group ([1]; pharyngeal tissue, Group 2, oral 40 mg/kg per day): 1,907.77%
Percent increase in TGFα with respect to the control group ([1]; pharyngeal tissue, Group 3, oral 80 mg/kg per day): 1,780.45%
Percent increase in TGFα with respect to the control group ([1]; pharyngeal tissue, Group 4, oral 100 mg/kg per day): 1,550.34%
Percent increase in TGFα with respect to the control group ([1]; pharyngeal tissue, Group 5, inhalation 0.05 mg/kg per day): 1,946.43%
Percent increase in TGFα with respect to the control group ([1]; pharyngeal tissue, Group 6, inhalation 0.1 mg/kg per day): 1,364.46%
Percent increase in TGFα with respect to the control group ([1]; pharyngeal tissue, Group 7, inhalation 0.2 mg/kg per day): 699.78%
Percent increase in TGFα with respect to the control group ([1]; pharyngeal tissue, Group 8, inhalation 0.4 mg/kg per day): 101.34%
metabolising enzyme [2]: principally metabolized by CYP3A4
